According to patent US20120157478A1, “Hair Care Compositions and Methods to Improve Hair Appearance” (priority 2010, published 2012):

System: primary human dermal papilla cells
Test: Survival of metabolically stressed primary human dermal papilla cells (ATP, Cell Titer Glo)
Format: cell-based
Details: for Survival: 48 hr stress, Vehicle = 1.00; for benefit in increasing the survival of stressed dermal papilla cells (in words): additional testing, individual components versus mixture of the three
From the text: The dermal papilla, in normal human hair, is the control center for hair diameter and growth. Increasing survival of dermal papilla cells in situ leads to increased hair diameter and to a longer anagen phase which results in longer hair, a higher hair density, and potentially delayed emergence of gray hair. The appearance of this hair results in healthier, younger looking hair. Accordingly, an increase in survival of dermal papilla cells correlates with healthier hair showing an increase in hair diameter, longer hair, higher hair density, and a delayed on-set of gray hair.
Primary human dermal papilla cells were metabolically stressed for 48 hours in reduced standard tissue culture media. During this period of stress the cells were treated with the mixtures below. After 48 hr the metabolic activity of the cells was measured by the amount of ATP using the Cell Titer Glo™ kit (Promega).

CC(C)(CO)[C@@H](O)C(=O)NCCCO [Panthenol, panthenol]
Survival (Panthenol 0.03%, first series): 1.02 | Survival (Panthenol 0.3%, second series): 0.75 | benefit in increasing the survival of stressed dermal papilla cells (in words): little benefit

NC(=O)c1cccnc1 [Niacinamide, niacinamide]
Survival (Niacinamide 0.5 mM, second series): 1.02 | Survival (Niacinamide 1.5 mM, first series): 0.71 | benefit in increasing the survival of stressed dermal papilla cells (in words): little benefit

Cn1c(=O)c2c(ncn2C)n(C)c1=O [Caffeine, caffeine]
Survival (Caffeine 0.02%, first series): 0.94 | Survival (Caffeine 0.05%, second series): 0.98 | benefit in increasing the survival of stressed dermal papilla cells (in words): little benefit

O=c1cc(-c2ccc(O)cc2)oc2cc(O)cc(O)c12 [apigenin, 5,7-Dihydroxy-2-(4-hydroxyphenyl)-4H-1-benzopyran-4-one]
increase in the hair follicle cells that survived (metabolically stressed 48 hr in reduced standard tissue culture media, ATP by Cell Titer Glo, concentrations not given): 122%
